Reference: US20240287076A1, “COMPOUNDS FOR TARGETING DEGRADATION OF BRUTON'S TYROSINE KINASE” (BIOGEN MA INC., priority 2021, published 2024)

molecular target: T1, BTK (Homo sapiens, UniProt Q06187); experiment: BTK degradation assay using the HiBiT Method (Nano-Glo HiBiT Lytic Assay, GM01501.3 cells); format: cell-based; settings: HiBiT Degradation on GM01501.3 BTK @ 6 hours
T1 construct: The GM01501.3 cell line endogenously expresses BTK with a HiBiT fusion tag via CRISPR knock-in at its C-terminal region; endogenous in cells; host or cells: GM01501.3 (GM01501 cells engineered by CRISPR knock-in of HiBiT at the BTK locus)
T1 sequence (Q06187 whole entry, the tested form may be a part): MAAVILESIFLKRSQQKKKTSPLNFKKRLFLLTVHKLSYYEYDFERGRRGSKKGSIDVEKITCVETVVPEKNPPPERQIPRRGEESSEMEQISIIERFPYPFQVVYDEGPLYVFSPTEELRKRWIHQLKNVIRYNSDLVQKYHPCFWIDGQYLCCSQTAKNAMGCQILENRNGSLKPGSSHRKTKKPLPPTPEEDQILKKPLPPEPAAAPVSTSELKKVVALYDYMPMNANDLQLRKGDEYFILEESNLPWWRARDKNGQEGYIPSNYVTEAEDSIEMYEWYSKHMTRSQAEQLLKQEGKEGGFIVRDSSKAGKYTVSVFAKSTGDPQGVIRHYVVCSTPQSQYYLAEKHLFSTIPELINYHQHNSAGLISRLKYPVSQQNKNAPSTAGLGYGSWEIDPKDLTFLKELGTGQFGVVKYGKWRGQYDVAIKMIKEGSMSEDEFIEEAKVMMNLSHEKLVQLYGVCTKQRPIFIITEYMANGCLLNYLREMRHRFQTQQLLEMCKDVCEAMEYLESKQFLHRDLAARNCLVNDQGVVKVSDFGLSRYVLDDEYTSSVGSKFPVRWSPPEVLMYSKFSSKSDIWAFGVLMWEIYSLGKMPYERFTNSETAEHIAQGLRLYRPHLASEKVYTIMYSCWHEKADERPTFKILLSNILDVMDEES
Outline: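 CRISPR knock-in GM01501.3 cells expressing endogenous BTK with C-terminal HiBiT tag, treated 6 h at 37 °C with compounds, 11-point half-log titration from 10 μM top, duplicates. Remaining BTK quantified by Nano-Glo HiBiT lytic luminescence versus DMSO controls; DC50 reported.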

DC50, < 100 nM:
Cc1cc(-c2ncnn3cc(-c4ccc(CN5CCC(c6ccc(NC7CCC(=O)NC7=O)cc6)CC5)cc4)cc23)ccc1CNC(=O)c1cccnc1 (stereo not shown) [Example 90, N-[[4-[6-[4-[[4-[4-[(2,6-dioxo-3-piperidyl)amino]phenyl]-1-piperidyl]methyl]phenyl]pyrrolo[2,1-f][1,2,4]triazin-4-yl]-2-methyl-phenyl]methyl]pyridine-3-carboxamide]
Cc1cc(-c2ncnn3cc(-c4ccc(CN5CCC(c6ccc(NC7CCC(=O)NC7=O)cc6)CC5)cc4)cc23)ccc1CNC(=O)c1cnc(C(C)C)cn1 (stereo not shown) [Example 91, N-[[4-[6-[4-[[4-[4-[(2,6-dioxo-3-piperidyl)amino]phenyl]-1-piperidyl]methyl]phenyl]pyrrolo[2,1-f][1,2,4]triazin-4-yl]-2-methyl-phenyl]methyl]-5-isopropyl-pyrazine-2-carboxamide]
Cc1cc(-c2ncnn3cc(-c4ccc(CN5CCC(c6ccc(NC7CCC(=O)NC7=O)cc6)CC5)cc4)cc23)ccc1CNC(=O)c1ccc(C(C)C)nn1 (stereo not shown) [Example 92, N-[[4-[6-[4-[[4-[4-[(2,6-dioxo-3-piperidyl)amino]phenyl]-1-piperidyl]methyl]phenyl]pyrrolo[2,1-f][1,2,4]triazin-4-yl]-2-methyl-phenyl]methyl]-6-isopropyl-pyridazine-3-carboxamide]
COc1ccc(C(=O)NCc2ccc(-c3ncnn4cc(-c5ccc(CN6CCC(c7ccc(NC8CCC(=O)NC8=O)cc7)CC6)cc5)cc34)cc2C)nc1 (stereo not shown) [Example 93, N-[[4-[6-[4-[[4-[4-[(2,6-dioxo-3-piperidyl)amino]phenyl]-1-piperidyl]methyl]phenyl]pyrrolo[2,1-f][1,2,4]triazin-4-yl]-2-methyl-phenyl]methyl]-5-methoxy-pyridine-2-carboxamide]
Cc1cc(-c2ncnn3cc(-c4ccc(CN5CCC(c6ccc(NC7CCC(=O)NC7=O)cc6)CC5)cc4)cc23)ccc1CNC(=O)c1ncc(C(C)C)cn1 (stereo not shown) [Example 94, N-[[4-[6-[4-[[4-[4-[(2,6-dioxo-3-piperidyl)amino]phenyl]-1-piperidyl]methyl]phenyl]pyrrolo[2,1-f][1,2,4]triazin-4-yl]-2-methyl-phenyl]methyl]-5-isopropyl-pyrimidine-2-carboxamide]
Cc1ccc(C(=O)NCc2ccc(-c3ncnn4cc(-c5ccc(CN6CCC(c7ccc(NC8CCC(=O)NC8=O)cc7)CC6)cc5)cc34)cc2C)c(F)c1 (stereo not shown) [Example 95, N-[[4-[6-[4-[[4-[4-[(2,6-dioxo-3-piperidyl)amino]phenyl]-1-piperidyl]methyl]phenyl]pyrrolo[2,1-f][1,2,4]triazin-4-yl]-2-methyl-phenyl]methyl]-2-fluoro-4-methyl-benzamide]
Cc1cc(-c2ncnn3cc(-c4ccc(CN5CCC(c6ccc(NC7CCC(=O)NC7=O)cc6)CC5)cc4)cc23)ccc1CNC(=O)c1ccc(C(F)F)cn1 (stereo not shown) [Example 96, 5-(difluoromethyl)-N-[[4-[6-[4-[[4-[4-[(2,6-dioxo-3-piperidyl)amino]phenyl]-1-piperidyl]methyl]phenyl]pyrrolo[2,1-f][1,2,4]triazin-4-yl]-2-methyl-phenyl]methyl]pyridine-2-carboxamide]
Cc1cc(-c2ncnn3cc(-c4ccc(CN5CCC(c6ccc(NC7CCC(=O)NC7=O)cc6)CC5)cc4)cc23)ccc1CNC(=O)N1CC(OC(C)(C)C)C1 (stereo not shown) [Example 97, 3-tert-butoxy-N-[[4-[6-[4-[[4-[4-[(2,6-dioxo-3-piperidyl)amino]phenyl]-1-piperidyl]methyl]phenyl]pyrrolo[2,1-f][1,2,4]triazin-4-yl]-2-methyl-phenyl]methyl]azetidine-1-carboxamide]
Cc1cc(-c2ncnn3cc(-c4ccc(CN5CCC(c6ccc(NC7CCC(=O)NC7=O)cc6)CC5)cc4)cc23)ccc1CNC(=O)N1CCC(OC(C)(C)C)C1 (stereo not shown) [Example 98, 3-tert-butoxy-N-[[4-[6-[4-[[4-[4-[(2,6-dioxo-3-piperidyl)amino]phenyl]-1-piperidyl]methyl]phenyl]pyrrolo[2,1-f][1,2,4]triazin-4-yl]-2-methyl-phenyl]methyl]pyrrolidine-1-carboxamide]
CC(C)(C)OC1CN(C(=O)NCc2ccc(-c3ncnn4cc(-c5ccc(CN6CCC(c7ccc(NC8CCC(=O)NC8=O)cc7)CC6)cc5)cc34)cc2F)C1 (stereo not shown) [Example 99, 3-tert-butoxy-N-[[4-[6-[4-[[4-[4-[(2,6-dioxo-3-piperidyl)amino]phenyl]-1-piperidyl]methyl]phenyl]pyrrolo[2,1-f][1,2,4]triazin-4-yl]-2-fluoro-phenyl]methyl]azetidine-1-carboxamide]
CC(C)(C)OC1CN(C(=O)NCc2ccc(-c3ncnn4cc(-c5ccc(CN6CCC(c7ccc(NC8CCC(=O)NC8=O)cn7)CC6)cc5)cc34)cc2F)C1 (stereo not shown) [Example 100, 3-tert-butoxy-N-[[4-[6-[4-[[4-[5-[(2,6-dioxo-3-piperidyl)amino]-2-pyridyl]-1-piperidyl]methyl]phenyl]pyrrolo[2,1-f][1,2,4]triazin-4-yl]-2-fluoro-phenyl]methyl]azetidine-1-carboxamide]
O=C1CCC(Nc2ccc(C3CCN(Cc4ccc(-c5cc6c(-c7ccc(CNC(=O)c8ccc(C(F)F)cc8)c(F)c7)ncnn6c5)cc4)CC3)cc2)C(=O)N1 (stereo not shown) [Example 101, 4-(difluoromethyl)-N-[[4-[6-[4-[[4-[4-[(2,6-dioxo-3-piperidyl)amino]phenyl]-1-piperidyl]methyl]phenyl]pyrrolo[2,1-f][1,2,4]triazin-4-yl]-2-fluoro-phenyl]methyl]benzamide]
O=C1CCC(Nc2ccc(C3CCN(Cc4ccc(-c5cc6c(-c7ccc(CNC(=O)c8ccc(C(F)F)cc8)c(F)c7)ncnn6c5)cc4)CC3)nc2)C(=O)N1 (stereo not shown) [Example 102, 4-(difluoromethyl)-N-[[4-[6-[4-[[4-[5-[(2,6-dioxo-3-piperidyl)amino]-2-pyridyl]-1-piperidyl]methyl]phenyl]pyrrolo[2,1-f][1,2,4]triazin-4-yl]-2-fluoro-phenyl]methyl]benzamide]
Cc1cc(-c2ncnn3cc(-c4ccc(CN5CCC(c6ccc(NC7CCC(=O)NC7=O)cc6)CC5)cc4)cc23)ccc1CN1CCN(CC(C)(C)C)CC1=O (stereo not shown) [Example 103, 3-[4-[1-[[4-[4-[4-[[4-(2,2-dimethylpropyl)-2-oxo-piperazin-1-yl]methyl]-3-methyl-phenyl]pyrrolo[2,1-f][1,2,4]triazin-6-yl]phenyl]methyl]-4-piperidyl]anilino]piperidine-2,6-dione]
Cc1cc(-c2ncnn3cc(-c4ccc(OCCN5CCC(c6ccc(C7CCC(=O)NC7=O)cc6)CC5)cc4)cc23)ccc1CNC(=O)c1noc(C(C)(C)C)n1 (stereo not shown) [Example 104, 5-tert-butyl-N-[[4-[6-[4-[2-[4-[4-(2,6-dioxo-3-piperidyl)phenyl]-1-piperidyl]ethoxy]phenyl]pyrrolo[2,1-f][1,2,4]triazin-4-yl]-2-methyl-phenyl]methyl]-1,2,4-oxadiazole-3-carboxamide]
Cc1cc(-c2ncnn3cc(-c4ccc(OCCN5CCC(c6ccc(NC7CCC(=O)NC7=O)cc6)CC5)cc4)cc23)ccc1CNC(=O)c1noc(C(C)(C)C)n1 (stereo not shown) [Example 105, 5-tert-butyl-N-[[4-[6-[4-[2-[4-[4-[(2,6-dioxo-3-piperidyl)amino]phenyl]-1-piperidyl]ethoxy]phenyl]pyrrolo[2,1-f][1,2,4]triazin-4-yl]-2-methyl-phenyl]methyl]-1,2,4-oxadiazole-3-carboxamide]
